Data on three compounds can be found in ChEMBL document CHEMBL4622860, “The relationship between the structure and toxicity of aminoglycoside antibiotics” (Bioorg Med Chem Lett, 2020).

Data set [1] can be described thus: Ototoxicity against C57BL/6 mouse cochlea hair cells assessed as reduction in cell viability at 0.1 mM incubated for 23 hrs by FITC-phalloidin staining-based assay. The class given is toxicity. Conditions: read-out: INH.
The nature of data set [2]: Nephrotoxicity in human patients assessed as proportion of patients with higher serum creatinine level. It counts as toxicity. Conditions: in vivo.

`NC[C@@H]1O[C@H](O[C@H]2[C@@H](O)[C@H](O[C@@H]3[C@@H](O)[C@H](N)C[C@H](N)[C@H]3O[C@H]3O[C@H](CN)[C@@H](O)[C@H](O)[C@H]3N)O[C@@H]2CO)[C@H](N)[C@@H](O)[C@@H]1O` [FRAMYCETIN]: the cytotoxicity at 23 h, 100 µM in data set [1] was 20%.
Consider `CN[C@@H]1[C@@H](O)[C@@H](O[C@@H]2[C@@H](O)[C@H](O[C@H]3OC(CNCCO)=CC[C@H]3N)[C@@H](N)C[C@H]2NC(=O)[C@@H](O)CCN)OC[C@]1(C)O` [PLAZOMICIN], for which the Activity in data set [2] is 7%.
On to `NC[C@@H]1O[C@H](O[C@H]2[C@@H](O)[C@H](O[C@@H]3[C@@H](O)[C@H](N)C[C@H](N)[C@H]3O[C@H]3O[C@H](CO)[C@@H](O)[C@H](O)[C@H]3N)O[C@@H]2CO)[C@H](N)[C@@H](O)[C@@H]1O` [PAROMOMYCIN], for which the cytotoxicity at 23 h, 100 µM in data set [1] was 4%.
